Measurements: US8642259B2, “Method for identifying substances capable of modulating the activity of a target molecule” (Sanofi-Aventis Deutschland GmbH, priority 2002, dated 2014)

Tests used:
[1] = biological target: human GPCR EDG1 (Homo sapiens, UniProt P21453); test: Growth readout (FUS1-HIS3, turbidity at 630 nm), yeast strain YLJ21 expressing EDG1; format: cell-based; settings: 2 mM 3-AT; 23 h at 30° C.; FIG. 3B left-hand graph
Experimental: (§1) The human GPCRs cloned into vector p426GPD are transformed into the appropriate yeast strain and incubated on SC selection plates without uracil and with 2% glucose as carbon source (SC/Gluc-Ura) at 30° C. for 3 days. The single cell colonies thus obtained are then utilized in order to inoculate 2 ml overnight cultures in SC/Gluc-Ura. The next day, the cells are diluted 1:100 in SC/Gluc-Ura-His pH 6.8. In the case of yeast strains using the FUS1 promoter for reporter gene expression, 2-10 mM 3-aminotriazole (3-AT, Sigma) are additionally added to said medium. In each case 90 μl of the diluted cell suspension are pipetted into a well of a 96-well microtiter plate, which already contains 10 μl of the ligand to be studied. The plates are incubated with or without shaking at 30° C. for 5-24 h. […] All measurements are averages from triplicate determinations. […] The transformed yeasts were then cultivated in 2 ml of SC/Gluc-Ura at 30° C. overnight. The next day, the cultures were diluted 1:100 in SC/Gluc-Ura-His pH 6.8 medium without (FIG. 3A) or with 2 mM 3-AT (FIG. 3B). […] The turbidity resulting from growth of the yeast cells was measured at 630 nm in the photometer (FIGS. 3A and B, in each case left-hand graph).

[2] = biological target: T1, human GPCR EDG5 (Homo sapiens, UniProt O95136); test: Growth readout (FUS1-HIS3, turbidity at 630 nm), yeast strain YLJ21 expressing EDG5; format: cell-based; settings: 2 mM 3-AT; 23 h at 30° C.; FIG. 3B left-hand graph
T1 construct: expressed in transfected cells; host or cells: Saccharomyces cerevisiae strain YLJ21 (endogenous Gpa1), episomal vector p426GPD
Experimental: as §1

[3] = tested on: human M1 muscarinic receptor, somatostatin receptor 2 and EDG5
Experimental: The human GPCRs cloned into vector p426GPD are transformed into the appropriate yeast strain and incubated on SC selection plates without uracil and with 2% glucose as carbon source (SC/Gluc-Ura) at 30° C. for 3 days. The single cell colonies thus obtained are then utilized in order to inoculate 2 ml overnight cultures in SC/Gluc-Ura. The next day, the cells are diluted 1:100 in SC/Gluc-Ura-His pH 6.8. In the case of yeast strains using the FUS1 promoter for reporter gene expression, 2-10 mM 3-aminotriazole (3-AT, Sigma) are additionally added to said medium. In each case 90 μl of the diluted cell suspension are pipetted into a well of a 96-well microtiter plate, which already contains 10 μl of the ligand to be studied. The plates are incubated with or without shaking at 30° C. for 5-24 h. This is followed by adding to each well 50 μl of assay mix. The assay mix consists of 150 μg/ml digitonin (Sigma), 300 μg/ml chlorophenol red β-D-galactopyranoside (CPRG, Roche), 300 mM sodium phosphate buffer pH 6.7. After incubation with or without shaking at 30° C. for 2 h, β-galactosidase activity is measured as absorption at 574 nm in a spectrophotometer (Spectramax Plus, Molecular Devices). The data are analyzed and dose-response curves are drawn using the Graphpad Prism 3.0 computer program. All measurements are averages from triplicate determinations. […]

human GPCR EDG1, sequence (P21453 whole entry): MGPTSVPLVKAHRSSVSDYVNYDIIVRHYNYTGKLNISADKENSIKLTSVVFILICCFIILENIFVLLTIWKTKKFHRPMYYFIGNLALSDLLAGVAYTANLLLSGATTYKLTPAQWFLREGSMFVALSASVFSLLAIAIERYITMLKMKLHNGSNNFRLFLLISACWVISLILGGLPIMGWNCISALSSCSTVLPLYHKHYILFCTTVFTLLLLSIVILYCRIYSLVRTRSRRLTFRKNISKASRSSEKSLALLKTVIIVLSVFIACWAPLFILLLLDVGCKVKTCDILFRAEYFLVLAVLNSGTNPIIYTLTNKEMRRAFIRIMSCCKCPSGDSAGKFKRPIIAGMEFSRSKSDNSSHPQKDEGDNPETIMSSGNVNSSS
T1 sequence (O95136 whole entry): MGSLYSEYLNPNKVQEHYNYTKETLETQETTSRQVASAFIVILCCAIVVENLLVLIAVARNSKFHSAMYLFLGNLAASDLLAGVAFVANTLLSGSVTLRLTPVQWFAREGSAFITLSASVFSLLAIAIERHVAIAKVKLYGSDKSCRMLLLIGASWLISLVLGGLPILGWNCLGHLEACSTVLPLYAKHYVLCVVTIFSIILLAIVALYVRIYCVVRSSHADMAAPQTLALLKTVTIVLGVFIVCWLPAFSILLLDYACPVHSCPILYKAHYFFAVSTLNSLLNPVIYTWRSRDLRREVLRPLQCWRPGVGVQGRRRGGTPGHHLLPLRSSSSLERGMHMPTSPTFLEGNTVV

Row | Compound | dose dependence of the measured signal (turbidity at 630 nm) [1] | dose dependence of the measured signal (turbidity at 630 nm) [2] | detection of the agonist in the receptor mixture [3]
1 | CCCCCCCCCCCCC/C=C/[C@@H](O)[C@@H](N)COP(=O)(O)O [sphingosine 1-phosphate] | level of the measured signal is dependent on the amount of sphingosine 1-phosphate | level of the measured signal is dependent on the amount of sphingosine 1-phosphate | can also be detected in the mixture
2 | somatostatin-14 | – | – | can also be detected in the mixture
